Values after ≈ are worked out from the molar mass of the structure shown. Active and inactive are the calls of the source. The calls are words filed in the database; no cut-off is given here.
Assays:
Staphylococcus aureus [1] = test: Antibacterial activity against methicilin-resistant Staphylococcus aureus 21455 assessed as inhibition of bacterial growth; type: functional
Cell membrane [2] = test: Induction of cell membrane […] in methicilin-resistant Staphylococcus aureus 21455 assessed as increase in fluorescence intensity at 8 times MIC by SYTOX green dye based fluorescence analysis; type: cell membranes
[3] = tested on: Staphylococcus saprophyticus; test: Antibacterial activity against Staphylococcus saprophyticus ATCC 49453 assessed as inhibition of bacterial growth; type: functional
[4] = tested on: Staphylococcus saprophyticus; test: Antibacterial activity against Staphylococcus saprophyticus ATCC BAA 750 assessed as inhibition of bacterial growth; type: functional
Bacillus subtilis = test: Antibacterial activity against Bacillus subtilis ATCC 6633 assessed as inhibition of bacterial growth; type: functional
Staphylococcus aureus [5] = test: Antibacterial activity against Staphylococcus aureus 29213 assessed as inhibition of bacterial growth; type: functional
Enterococcus faecium [6] = test: Antibacterial activity against Vancomycin-resistant Enterococcus […] ATCC 700802 assessed as inhibition of bacterial growth; type: functional
Staphylococcus aureus [7] = test: Antibacterial activity against methicilin-resistant Staphylococcus aureus 42412 assessed as inhibition of bacterial growth; type: functional
Cell membrane [8] = test: Induction of cell membrane […] in methicilin-resistant Staphylococcus aureus 21455 assessed as increase in fluorescence intensity at 16 times MIC by SYTOX green dye based fluorescence analysis; type: cell membranes
[9] = tested on: Staphylococcus saprophyticus; test: Antibacterial activity against Staphylococcus saprophyticus ATCC 15305 assessed as inhibition of bacterial growth; type: functional
[10] = Hemolytic activity in rabbit erythrocytes assessed as hemolysis at 256 microg/ml relative to control; type: toxicity, cell-based, Oryctolagus cuniculus, Erythrocyte; settings: at 256 µg/mL, read-out: Activity
Staphylococcus aureus [11] = test: Bactericidal activity against methicilin-resistant Staphylococcus aureus 21455 assessed as inhibition of bacterial growth by time-kill kinetic assay; type: functional, organism-based
[12] = tested on: Staphylococcus saprophyticus; test: Antibacterial activity against Staphylococcus saprophyticus ATCC 49907 assessed as inhibition of bacterial growth; type: functional
Staphylococcus aureus [13] = test: Antibacterial activity against methicilin-resistant Staphylococcus aureus 1003 assessed as inhibition of bacterial growth; type: functional
Staphylococcus aureus [14] = test: Bactericidal activity against methicilin-resistant Staphylococcus aureus 21455 assessed as reduction in bacterial viability at 2 times MIC observed after 4 hrs by time-kill kinetic assay relative to control; type: functional
Enterococcus faecium [15] = test: Antibacterial activity against Vancomycin-resistant Enterococcus […] ATCC 29212 assessed as inhibition of bacterial growth; type: functional; settings: Enterococcus faecalis
[16] = Hemolytic activity in rabbit erythrocytes assessed as hemolysis at 64 microg/ml relative to control; type: toxicity, cell-based, Oryctolagus cuniculus, Erythrocyte; settings: at 64 µg/mL, read-out: Activity
Staphylococcus aureus [17] = test: Antibacterial activity against methicilin-resistant Staphylococcus aureus ATCC 700699 assessed as inhibition of bacterial growth; type: functional
Staphylococcus aureus [18] = test: Bactericidal activity against methicilin-resistant Staphylococcus aureus 21455 assessed as reduction in bacterial colony forming unit at 16 times MIC observed after 2 hrs by time-kill kinetic assay; type: functional
Cell membrane [19] = test: Induction of cytoplasmic membrane depolarization in methicilin-resistant Staphylococcus aureus 21455 at 8 times MIC by DiSC3(5) dye-based fluorescence assay
Staphylococcus aureus [20] = test: Antibacterial activity against Staphylococcus aureus 4299 assessed as inhibition of bacterial growth; type: functional
Enterococcus faecium [21] = test: Antibacterial activity against Vancomycin-resistant Enterococcus faecium 1014 assessed as inhibition of bacterial growth; type: functional
Bacillus cereus = test: Antibacterial activity against Bacillus cereus ATCC 11788 assessed as inhibition of bacterial growth; type: functional
[22] = tested on: Staphylococcus epidermidis; test: Antibacterial activity against Staphylococcus epidermidis 12228 assessed as inhibition of bacterial growth; type: functional
Cell membrane [23] = test: Induction of cytoplasmic membrane depolarization in methicilin-resistant Staphylococcus aureus 21455 at 16 times MIC by DiSC3(5) dye-based fluorescence assay
[24] = Hemolytic activity in rabbit erythrocytes assessed as hemolysis at 512 microg/ml relative to control; type: toxicity, cell-based, Oryctolagus cuniculus, Erythrocyte; settings: at 512 µg/mL, read-out: Activity
Staphylococcus aureus [25] = test: Bactericidal activity against methicilin-resistant Staphylococcus aureus 21455 assessed as reduction in bacterial colony forming unit at 16 times MIC observed after 24 hrs by time-kill kinetic assay; type: functional, organism-based
Staphylococcus aureus [26] = test: Bactericidal activity against methicilin-resistant Staphylococcus aureus 21455 assessed as reduction in bacterial colony forming unit at 16 times MIC observed after 8 hrs by time-kill kinetic assay; type: functional, organism-based
Staphylococcus aureus [27] = test: Bactericidal activity against methicilin-resistant Staphylococcus aureus 21455 assessed as inhibition of bacterial growth at >=8 times MIC by time-kill kinetic assay; type: functional, organism-based
Staphylococcus aureus [28] = test: Bactericidal activity against methicilin-resistant Staphylococcus aureus 21455 assessed as reduction in bacterial growth by measuring minimum bactericidal concentration at 16 times MIC by time-kill kinetic assay; type: functional
Pseudomonas aeruginosa [29] = test: Antibacterial activity against Pseudomonas aeruginosa DSMZ 1117 assessed as inhibition of bacterial growth; type: functional
[30] = tested on: Staphylococcus epidermidis; test: Antibacterial activity against Staphylococcus epidermidis 1457 assessed as inhibition of biofilm formation at 10 ug/ml incubated for 5 hrs by confocal microscopic analysis; type: functional, organism-based; settings: dose 10.0 µg/ml
Staphylococcus aureus [31] = test: Antibacterial activity against Staphylococcus aureus 15981 assessed as inhibition of biofilm formation at 10 ug/ml incubated for 5 hrs by confocal microscopic analysis; type: functional, organism-based; settings: dose 10.0 µg/ml
Pseudomonas aeruginosa [32] = test: Antibacterial activity against Pseudomonas aeruginosa ATCC 9027 assessed as inhibition of bacterial growth; type: functional

Compound	MIC (Staphylococcus aureus [1])	Activity (Cell membrane [2])	MIC [3]	MIC [4]	MIC (Bacillus subtilis)	MIC (Staphylococcus aureus [5])	MIC (Enterococcus faecium [6])	MIC (Staphylococcus aureus [7])	Activity (Cell membrane [8])	MIC [9]	MIC [12]	MIC (Staphylococcus aureus [13])	MIC (Enterococcus faecium [15])	MIC (Staphylococcus aureus [17])	Activity (Cell membrane [19])	MIC (Staphylococcus aureus [20])	MIC (Enterococcus faecium [21])	MIC (Bacillus cereus)	MIC [22]	Activity (Cell membrane [23])	further results
CC[C@H](C)[C@H](NC(=O)[C@@H](Cc1ccccc1)NC)C(=O)N[C@@H](CCCNC(=N)N)C(=O)N[C@H](CCCNC(=N)N)C(=O)N[C@@H](C(=O)N[C@H](C(=O)N[C@@H](CO)C(=O)N[C@H]1C(=O)N[C@@H](CCCNC(=N)N)C(=O)N[C@@H](C2CCCCC2)C(=O)N[C@@H]([C@@H](C)CC)C(=O)O[C@H]1C)[C@@H](C)CC)[C@@H](C)CC	2 mg/L (≈ 1.42 µM)	65.5%	0.063 mg/L (≈ 0.0447 µM)	< 0.063 mg/L	0.063 mg/L (≈ 0.0447 µM)	0.5 mg/L (≈ 0.355 µM)	4 mg/L (≈ 2.84 µM)	1 mg/L (≈ 0.709 µM)	70.2%	< 0.063 mg/L	0.063 mg/L (≈ 0.0447 µM)	1 mg/L (≈ 0.709 µM)	2 mg/L (≈ 1.42 µM)	1 mg/L (≈ 0.709 µM)	Active	1 mg/L (≈ 0.709 µM)	2 mg/L (≈ 1.42 µM)	0.5 mg/L (≈ 0.355 µM)	0.063 mg/L (≈ 0.0447 µM)	Active	hemolysis at 256 microg/ml [10]: 25%; Activity (Staphylococcus aureus [11]): Dose-Dependent Effect; Activity (Staphylococcus aureus [14]): >=99.9%; hemolysis at 64 microg/ml [16]: 5.4%; Activity (Staphylococcus aureus [18]): >=3 log10CFU
CC[C@H](C)[C@H](NC(=O)[C@@H](Cc1ccccc1)NC)C(=O)N[C@@H](CO)C(=O)N[C@H](CCC(N)=O)C(=O)N[C@@H](C(=O)N[C@H](C(=O)N[C@@H](CO)C(=O)N[C@H]1C(=O)N[C@@H](C)C(=O)N[C@@H](C2CCCCC2)C(=O)N[C@@H]([C@@H](C)CC)C(=O)O[C@H]1C)[C@@H](C)CC)[C@@H](C)CC	0.125 mg/L (≈ 0.102 µM)	8.8%	< 0.063 mg/L	0.063 mg/L (≈ 0.0513 µM)	0.063 mg/L (≈ 0.0513 µM)	0.063 mg/L (≈ 0.0513 µM)	0.063 mg/L (≈ 0.0513 µM)	0.063 mg/L (≈ 0.0513 µM)	10.6%	< 0.063 mg/L	0.063 mg/L (≈ 0.0513 µM)	0.063 mg/L (≈ 0.0513 µM)	0.125 mg/L (≈ 0.102 µM)	0.125 mg/L (≈ 0.102 µM)	inactive	0.063 mg/L (≈ 0.0513 µM)	0.25 mg/L (≈ 0.204 µM)	0.063 mg/L (≈ 0.0513 µM)	0.063 mg/L (≈ 0.0513 µM)	inactive	hemolysis at 512 microg/ml [24]: ≤ 2%; Activity (Staphylococcus aureus [25]): Active; Activity (Staphylococcus aureus [26]): Active; Activity (Staphylococcus aureus [27]): Active; MBC (Staphylococcus aureus [28]): 2 mg/L (≈ 1.63 µM)
CC[C@H](C)[C@H](NC(=O)[C@@H](Cc1ccccc1)NC)C(=O)N[C@@H](CO)C(=O)N[C@H](CCCNC(=N)N)C(=O)N[C@@H](C(=O)N[C@H](C(=O)N[C@@H](CO)C(=O)N[C@H]1C(=O)N[C@@H](C)C(=O)N[C@@H](C2CCCCC2)C(=O)N[C@@H]([C@@H](C)CC)C(=O)O[C@H]1C)[C@@H](C)CC)[C@@H](C)CC	0.25 mg/L (≈ 0.199 µM)	Active	< 0.063 mg/L	0.063 mg/L (≈ 0.0502 µM)	0.063 mg/L (≈ 0.0502 µM)	0.063 mg/L (≈ 0.0502 µM)	0.063 mg/L (≈ 0.0502 µM)	0.063 mg/L (≈ 0.0502 µM)	Active	< 0.063 mg/L	0.063 mg/L (≈ 0.0502 µM)	0.063 mg/L (≈ 0.0502 µM)	0.063 mg/L (≈ 0.0502 µM)	0.063 mg/L (≈ 0.0502 µM)	inactive	0.063 mg/L (≈ 0.0502 µM)	0.063 mg/L (≈ 0.0502 µM)	0.063 mg/L (≈ 0.0502 µM)	0.063 mg/L (≈ 0.0502 µM)	inactive	hemolysis at 512 microg/ml [24]: ≤ 2%; MIC (Pseudomonas aeruginosa [29]): > 32 mg/L; Activity (Staphylococcus aureus [25]): Active; Activity [30]: Active; Activity (Staphylococcus aureus [31]): Active; Activity (Staphylococcus aureus [11]): Dose-Dependent Effect; Activity (Staphylococcus aureus [26]): Active; MIC (Pseudomonas aeruginosa [32]): > 32 mg/L
CCCCCCCCCC(=O)N[C@@H](Cc1c[nH]c2ccccc12)C(=O)N[C@H](CC(N)=O)C(=O)N[C@@H](CC(=O)O)C(=O)N[C@@H]1C(=O)NCC(=O)N[C@@H](CCCN)C(=O)N[C@@H](CC(=O)O)C(=O)N[C@H](C)C(=O)N[C@@H](CC(=O)O)C(=O)NCC(=O)N[C@H](CO)C(=O)N[C@@H]([C@H](C)CC(=O)O)C(=O)N[C@@H](CC(=O)c2ccccc2N)C(=O)O[C@@H]1C	0.5 mg/L (≈ 0.309 µM)	–	0.125 mg/L (≈ 0.0771 µM)	0.125 mg/L (≈ 0.0771 µM)	0.125 mg/L (≈ 0.0771 µM)	0.25 mg/L (≈ 0.154 µM)	1 mg/L (≈ 0.617 µM)	1 mg/L (≈ 0.617 µM)	–	0.125 mg/L (≈ 0.0771 µM)	0.125 mg/L (≈ 0.0771 µM)	2 mg/L (≈ 1.23 µM)	1 mg/L (≈ 0.617 µM)	2 mg/L (≈ 1.23 µM)	–	0.25 mg/L (≈ 0.154 µM)	2 mg/L (≈ 1.23 µM)	0.125 mg/L (≈ 0.0771 µM)	0.125 mg/L (≈ 0.0771 µM)	–	–

Source: ChEMBL document CHEMBL5634143, “Development of teixobactin analogues containing hydrophobic, non-proteogenic amino acids that are highly potent against multidrug-resistant bacteria and biofilms” (Eur J Med Chem, 2023)
